What all share (format): cell-based
Experiment [1] concerns Pseudomonas aeruginosa. In words: Disc test, Bauer-Kirby technique with 10 Mcg. discs. The settings on record: Pseudomonas aeruginosa. An excerpt: (§1) Disc Test Results (Replicate Tests) With The Mutamicins, Sisomicin and
(§2) Bauer-Kirby Technique^1 With 10 Mcg. Discs
(§3) ^1 Bauer, Kirby, Sherris and Turck, American Journal of Clinical

The test system of experiment [2] is Proteus rettgeri. Described as above. The settings on record: Providencia rettgeri.
Source text: as §1, §2, §3

The test system of experiment [3] is Staphylococcus aureus. The description is as above. The settings on record: Staphylococcus aureus.
Source text: as §1, §2, §3

The subject of experiment [4] is Bacillus subtilis. The experiment is described as above. The settings on record: Bacillus subtilis, ATCC6633, strain ATCC 6633.
Source text: as §1, §2, §3

Experiment [5] has as its system Providence 164. The experiment is described as above. The settings on record: strain 164.
Source text: as §1, §2, §3

For experiment [6], the system named is Klebsiella pneumoniae. The description is as above. The settings on record: Klebsiella pneumoniae.
Source text: as §1, §2, §3

In experiment [7] the test system is Proteus airabilis. The description is as above. The settings on record: strain Harding.
Source text: as §1, §2, §3

Experiment [8] relates to Escherichia coli. Described as above. The settings on record: Escherichia coli, read-out: Zone Size.
Source text: as §1, §2, §3

Experiment [9] concerns Salmonella typhimurium. The description is as above. The settings on record: Salmonella enterica, Group B.
Source text: as §1, §2, §3

Experiment [10] deals with Streptococcus pyogenes. The description is as above. The settings on record: Streptococcus pyogenes.
Source text: as §1, §2, §3

Experiment [11] concerns Providence. In words: Activity against resistant strains. The settings on record: gentamicin, sisomicin, tobramycin resistant Providence. An excerpt: (§4) In many instances, bacterial resistance is related to the organism's ability to inactivate the antibacterial agent via enzymatic (biochemical) means. Some species inactivate aminoglycosides antibiotics by acetylating the antibacterial agent, others by phosphorylation and still others by adenylylating. Some strains have several different inactivating capabilities. Further, the inactivation reactions occur at a specific site or sites on the antibacterial agent. We have shown by the compounds of this invention that alteration of sites on the antibiotic molecule not directly involved in inactivation processes can nevertheless frustrate these inactivation processes. […] The tables illustrate that the mutamicins include compounds which are active against strains having different mechanisms of inactivation of gentamicin, sisomicin, kanamycin, neomycin and torbramycin. For example, some mutamicins are effective against strains of E. coli which contain adenylylating R factors such as E. coli W677/R55 and LA290/R55. These E. coli strains are resistant to gentamicin, sisomicin and torbramycin. Some are also effective against gentamicin, tobramycin and kanamycin resistant adenylylating strains of Klebsiella pneumoniae and also kanamycin, neomycin phosphorylating strains of E. coli and Klebsiella pneumoniae. Further, some mutamicins are effective against gentamicin and sisomicin resistant strains of Pseudomonas aeruginosa and gentamicin, sisomicin, tobramycin resistant Providence which is sensitive to kanamycin. Thus, the mutamicins afford a means for combatting strains of bacteria which have already developed a variety of mechanisms for resisting the action of many of the antibiotics known in the art or currently in commercial use.

The subject of experiment [12] is Klebsiella pneumoniae. In words: Activity against resistant strains. The settings on record: gentamicin, tobramycin and kanamycin resistant adenylylating strains.
Source text: as §4

Experiment [13] relates to E. coli. In words: Activity against resistant strains. The settings on record: E. coli W677/R55 and LA290/R55.
Source text: as §4

Where [14] appears, read: ATCC10536, strain ATCC 10536, 10 Mcg. discs.
[15] abbreviates: strain St. Michael 1574-1, 10 Mcg. discs.
[16] abbreviates: strain Swidinsky 4195, 10 Mcg. discs.

From patent publication US4011390A, “Semi-synthetic aminocyclitol aminoglycoside antibiotics and methods for the preparation thereof” (Schering-Plough Corporation, priority 1974, dated 1977) come the findings set out here.

SMILES strings stand for the structures. Like-named read-outs stand apart in the source and are kept apart here.

As for `CN[C@@H]1[C@@H](O)[C@@H](O[C@@H]2C[C@H](O[C@H]3OC(CN)=CC[C@H]3N)[C@@H](N)C[C@H]2N)OC[C@]1(C)O` [Mutamicin 2], the zone of inhibition at 10 µg/disc in [1] (strain Capetown 18) amounted to 22 mm; in experiment [1] (strain D-2) it was 26 mm; in experiment [1] (strain St. Michael 413) it was 27 mm; in experiment [1] (strain St. Michael 762) it was 26 mm; in experiment [1] (strain St. Michael 836) it was 28 mm; in experiment [1] (strain St. Michael 1262), 27 mm. Moreover, the zone of inhibition at 10 µg/disc in experiment [1] (strain St. Michael 1395) was determined as 28 mm; in [1] (strain Stone 20), 33 mm; in experiment [1] (strain Stone 39) it was 27 mm; in experiment [1] (strain Stone 130), 25 mm; in experiment [1] (strain Stone 138) it was 23 mm; in experiment [2], 24 mm. Also, the zone of inhibition at 10 µg/disc in experiment [3] (ATCC6538P, strain ATCC 6538P) was 27 mm; in experiment [3] (strain 59N), 29 mm; in [3] (strain 1118) it was 14 mm; in experiment [3] (strain Grey) it was 16 mm; in [3] (strain Wood), 29 mm; in experiment [3] (strain Ziegler), 28 mm. Moreover, the zone of inhibition at 10 µg/disc in [4] stood at 33 mm; in [5], 25 mm; in [6] (strain Ad 17), 23 mm; in [6] (strain Ad 18) it was 25 mm; in experiment [6] (strain Georgetown 3020) it was 21 mm; in experiment [6] (strain Georgetown 3694), 22 mm. Moreover, the zone of inhibition at 10 µg/disc in experiment [7] amounted to 26 mm; in experiment [8] (setting [14]), 28 mm; in experiment [8] (strain 589, 10 Mcg. discs), 24 mm; in experiment [8] (strain JR66, 10 Mcg. discs) it was 26 mm; in [8] (strain JR88, 10 Mcg. discs) it was 22 mm; in experiment [8] (strain JR90, 10 Mcg. discs), 25 mm. The zone of inhibition at 10 µg/disc in [8] (strain LA290/R55, 10 Mcg. discs) turned out to be 21 mm; in experiment [8] (setting [15]), 27 mm; in [8] (setting [16]), 25 mm; in experiment [8] (strain W677/R55, 10 Mcg. discs), 21 mm; in [9] it was 27 mm; in [10] (strain B-Cruz), 17 mm. This compound gave a zone of inhibition at 10 µg/disc in [10] (strain C) of 15 mm.
Turning to `NC[C@H]1O[C@H](O[C@H]2[C@H](O)[C@@H](O[C@H]3O[C@H](CO)[C@@H](O)[C@H](N)[C@H]3O)[C@H](N)C[C@@H]2N)[C@H](O)[C@@H](O)[C@@H]1O` [kanamycin], in experiment [11], the “activity against resistant Providence” value is on record as “sensitive”. Further, the “activity against resistant adenylylating strains” value in [12] is on record as “resistant”.
For the compound `NC[C@H]1O[C@H](O[C@H]2[C@H](O)[C@@H](O[C@H]3O[C@H](CO)[C@@H](O)[C@H](N)[C@H]3O)[C@H](N)C[C@@H]2N)[C@H](N)C[C@@H]1O` [tobramycin], in [11], the “activity against resistant Providence” value was “resistant”. The “activity against resistant adenylylating strains” value in experiment [12] is “resistant”. In addition, the “activity against strains containing adenylylating R factors” value in experiment [13] is recorded as “resistant”.
On to `CN[C@@H]1[C@@H](O)[C@@H](O[C@@H]2[C@@H](N)[C@H](O[C@H]3OC(CN)=CC[C@H]3N)[C@@H](N)C[C@H]2N)OC[C@]1(C)O` [Mutamicin 5], for which the zone of inhibition at 10 µg/disc in [1] (strain Capetown 18) was 0 mm; in [1] (strain D-2) it was 0 mm; in experiment [1] (strain St. Michael 413), 11 mm; in experiment [1] (strain St. Michael 836), 10 mm; in [1] (strain St. Michael 1262), 10 mm; in experiment [1] (strain St. Michael 1395), 0 mm. Further, the zone of inhibition at 10 µg/disc in experiment [1] (strain Stone 20) came out at 16 mm; in experiment [1] (strain Stone 39), 12 mm; in [1] (strain Stone 130), 0 mm; in experiment [1] (strain Stone 138), 0 mm; in experiment [2] it was 13 mm; in experiment [3] (ATCC6538P, strain ATCC 6538P) it was 21 mm. The zone of inhibition at 10 µg/disc in [3] (strain 59N) came to 23 mm; in experiment [3] (strain Wood) it was 25 mm; in experiment [3] (strain Ziegler), 23 mm; in experiment [4] it was 28 mm; in [5], 9 mm; in [6] (strain Ad 17), 20 mm. Besides, the zone of inhibition at 10 µg/disc worked out at 21 mm in experiment [6] (strain Ad 18); 0 mm in experiment [6] (strain Georgetown 3020); 0 mm in experiment [6] (strain Georgetown 3694); 19 mm in experiment [7]; 24 mm in [8] (setting [14]); 18 mm in experiment [8]. Moreover, the zone of inhibition at 10 µg/disc was determined as 0 mm in experiment [8] (strain JR66, 10 Mcg. discs); 0 mm in experiment [8] (strain JR88, 10 Mcg. discs); 0 mm in [8] (strain JR90, 10 Mcg. discs); 22 mm in [8] (setting [15]); 0 mm in experiment [8] (setting [16]); 10 mm in experiment [8] (strain W677/R55, 10 Mcg. discs). Also, the zone of inhibition at 10 µg/disc in [9] is 22 mm.
Consider `CN[C@@H]1[C@@H](O)[C@@H](O[C@H]2[C@H](N)[C@H](O)[C@H](N)[C@@H](O[C@H]3OC(CN)=CC[C@H]3N)[C@@H]2O)OC[C@]1(C)O` [Mutamicin 4], for which the zone of inhibition at 10 µg/disc in experiment [1] (strain Capetown 18) stood at 16 mm; in experiment [1] (strain D-2) it was 17 mm; in experiment [1] (strain St. Michael 413) it was 19 mm; in experiment [1] (strain St. Michael 836) it was 19 mm; in [1] (strain St. Michael 1262) it was 19 mm; in experiment [1] (strain St. Michael 1395), 19 mm. Further, the zone of inhibition at 10 µg/disc in experiment [1] (strain Stone 20) was determined as 28 mm; in experiment [1] (strain Stone 39), 20 mm; in [1] (strain Stone 130), 14 mm; in experiment [1] (strain Stone 138), 11 mm; in experiment [2], 14 mm; in [3] (ATCC6538P, strain ATCC 6538P) it was 24 mm. For the same compound, the zone of inhibition at 10 µg/disc in experiment [3] (strain 59N) was 26 mm; in experiment [3] (strain 1118) it was 14 mm; in [3] (strain Grey), 13 mm; in [3] (strain Wood), 26 mm; in experiment [3] (strain Ziegler), 24 mm; in experiment [4] it was 29 mm. Moreover, the zone of inhibition at 10 µg/disc came to 0 mm in experiment [5]; 25 mm in experiment [6] (strain Ad 17); 24 mm in experiment [6] (strain Ad 18); 26 mm in [6] (strain Ad 22); 19 mm in experiment [6] (strain Georgetown 3020); 19 mm in [6] (strain Georgetown 3694). Also, the zone of inhibition at 10 µg/disc in [7] turned out to be 21 mm; in experiment [8] (setting [14]), 27 mm; in experiment [8] (strain 589, 10 Mcg. discs), 26 mm; in experiment [8] (strain Baker 2, 10 Mcg. discs) it was 24 mm; in [8] (strain JR66, 10 Mcg. discs), 18 mm; in experiment [8] (strain JR88, 10 Mcg. discs), 16 mm. Moreover, the zone of inhibition at 10 µg/disc in experiment [8] (strain JR90, 10 Mcg. discs) was determined as 22 mm; in [8] (setting [15]), 25 mm; in [8] (setting [16]), 17 mm; in [8] (strain W677/R55, 10 Mcg. discs), 13 mm; in experiment [9] it was 25 mm; in experiment [10] (strain 27), 12 mm. In experiment [10] (strain C), the zone of inhibition at 10 µg/disc is 12 mm.
